Laboratory results: PubChem BioAssay AID248 (DTP/NCI, 2004)
Inconclusive results and toxic doses are left out.

System: L1210 leukemia ip in BDF1 mice, survival T/C
Experiment: NCI In Vivo Anticancer Drug Screen. Data for tumor model L1210 Leukemia (intraperitoneal) in B6D2F1 (BDF1) mice
Details: endpoint: mean survival time, higher = longer survival
Procedure, shortened: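 Tumor cells were implanted, animals were treated, and survival was followed. The result divides the treated measurement by the vehicle-control measurement.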

[1] = dose: 100.0 mg/kg/injection, schedule: Q04DX003 (ip), vehicle: Klucel (hydroxypropylcellulose) (HPC)
[2] = dose: 200.0 mg/kg/injection, schedule: Q04DX003 (ip), vehicle: Klucel (hydroxypropylcellulose) (HPC)
[3] = dose: 400.0 mg/kg/injection, schedule: Q04DX003 (ip), vehicle: Klucel (hydroxypropylcellulose) (HPC)
[4] = dose: 25.0 mg/kg/injection, schedule: Q01DX009 (ip), vehicle: saline with Tween-80

Structure (SMILES): c1ccc(SC23CC4CC(CC(C4)C2)C3)nc1
- T/C (dose: 100.0 mg/kg/injection, schedule: Q01DX003 (ip), vehicle: Klucel (hydroxypropylcellulose) (HPC)): 100 % of control
- T/C [1]: 94 % of control
- T/C (dose: 200.0 mg/kg/injection, schedule: Q01DX003 (ip), vehicle: Klucel (hydroxypropylcellulose) (HPC)): 89 % of control
- T/C [2]: 91 % of control
- T/C (dose: 400.0 mg/kg/injection, schedule: Q01DX003 (ip), vehicle: Klucel (hydroxypropylcellulose) (HPC)): 94 % of control
- T/C [3]: 102 % of control

Structure (SMILES): OCC1C2CC3C(C2)C13 (stereo unspecified)
- T/C (dose: 100.0 mg/kg/injection, schedule: Q01DX001 (ip), vehicle: carboxymethylcellulose (CMC)): 101 % of control
- T/C (dose: 200.0 mg/kg/injection, schedule: Q01DX001 (ip), vehicle: carboxymethylcellulose (CMC)): 93 % of control
- T/C (dose: 400.0 mg/kg/injection, schedule: Q01DX001 (ip), vehicle: carboxymethylcellulose (CMC)): 90 % of control

Structure (SMILES): N#CCCSP(=S)(Oc1ccccc1)Oc1ccccc1
- T/C (dose: 100.0 mg/kg/injection, schedule: Q01DX009 (ip), vehicle: other): 100 % of control
- T/C (dose: 200.0 mg/kg/injection, schedule: Q01DX009 (ip), vehicle: other): 100 % of control
- T/C (dose: 400.0 mg/kg/injection, schedule: Q01DX009 (ip), vehicle: other): 94 % of control

Structure (SMILES): NC(CSSc1ccccc1)=NC1CCCCC1
- T/C (dose: 12.5 mg/kg/injection, schedule: Q04DX002 (ip), vehicle: other): 98 % of control
- T/C (dose: 25.0 mg/kg/injection, schedule: Q04DX002 (ip), vehicle: other): 109 % of control
- T/C (dose: 50.0 mg/kg/injection, schedule: Q04DX002 (ip), vehicle: other): 91 % of control

Structure (SMILES): Cc1cc2nnc(C)n2c2ccccc12
- T/C (dose: 50.0 mg/kg/injection, schedule: Q01DX001 (ip), vehicle: saline): 103 % of control
- T/C (dose: 100.0 mg/kg/injection, schedule: Q01DX001 (ip), vehicle: saline): 103 % of control

Structure (SMILES): CCOCCOCCOC(C)Oc1ccc(Cl)cc1 (stereo unspecified)
- T/C (dose: 100.0 mg/kg/injection, schedule: Q04DX002 (ip), vehicle: saline): 96 % of control
- T/C (dose: 200.0 mg/kg/injection, schedule: Q04DX002 (ip), vehicle: saline): 90 % of control
- T/C (dose: 400.0 mg/kg/injection, schedule: Q04DX002 (ip), vehicle: saline): 104 % of control

Structure (SMILES): Cc1ccccc1N1CCN(c2ccccc2C)C1=C1N(c2ccccc2C)CCN1c1ccccc1C
- T/C (dose: 100.0 mg/kg/injection, schedule: Q04DX002 (ip), vehicle: DMSO): 103 % of control
- T/C (dose: 200.0 mg/kg/injection, schedule: Q04DX002 (ip), vehicle: DMSO): 98 % of control

Structure (SMILES): O=C=Nc1ccc(C(=O)CCl)cc1
- T/C (dose: 20.0 mg/kg/injection, schedule: Q01DX009 (ip), vehicle: saline with Tween-80): 91 % of control
- T/C (dose: 40.0 mg/kg/injection, schedule: Q01DX009 (ip), vehicle: saline with Tween-80): 91 % of control
- T/C (dose: 80.0 mg/kg/injection, schedule: Q01DX009 (ip), vehicle: saline with Tween-80): 101 % of control
- T/C (dose: 160.0 mg/kg/injection, schedule: Q01DX009 (ip), vehicle: saline with Tween-80): 98 % of control

Structure (SMILES): Brc1ccc(N2N=NC3CNCC32)cc1 (stereo unspecified)
- T/C (dose: 100.0 mg/kg/injection, schedule: Q04DX003 (ip), vehicle: saline with Tween-80): 92 % of control
- T/C (dose: 200.0 mg/kg/injection, schedule: Q04DX003 (ip), vehicle: saline with Tween-80): 105 % of control
- T/C (dose: 400.0 mg/kg/injection, schedule: Q04DX003 (ip), vehicle: saline with Tween-80): 94 % of control

Structure (SMILES): CN(C)c1ncnc2c1nnn2C1OC(CO)C(O)C1O (stereo unspecified)
- T/C (dose: 178.0 mg/kg/injection, schedule: Q01DX001 (ip), vehicle: saline): 106 % of control
- T/C (dose: 267.0 mg/kg/injection, schedule: Q01DX001 (ip), vehicle: saline): 106 % of control
- T/C (dose: 400.0 mg/kg/injection, schedule: Q01DX001 (ip), vehicle: saline): 117 % of control

Structure (SMILES): S=C(Nc1ccc(Cl)c(Cl)c1)SCc1ccc(Cl)cc1
- T/C (dose: 25.0 mg/kg/injection, schedule: Q04DX003 (ip), vehicle: saline): 104 % of control
- T/C (dose: 50.0 mg/kg/injection, schedule: Q04DX003 (ip), vehicle: saline): 101 % of control
- T/C (dose: 100.0 mg/kg/injection, schedule: Q04DX003 (ip), vehicle: saline): 104 % of control

Structure (SMILES): O=S(=O)(c1ccc(N=NN2CCCC2)cc1)N(CCCl)CCCl
- T/C (dose: 100.0 mg/kg/injection, schedule: Q04DX002 (ip), vehicle: saline with Tween-80): 101 % of control
- T/C (dose: 200.0 mg/kg/injection, schedule: Q04DX002 (ip), vehicle: saline with Tween-80): 101 % of control
- T/C (dose: 400.0 mg/kg/injection, schedule: Q04DX002 (ip), vehicle: saline with Tween-80): 108 % of control

Structure (SMILES): CC(C)(C)C1CCC(N=C(N)CCl)CC1 (stereo unspecified)
- T/C (dose: 6.25 mg/kg/injection, schedule: Q01DX009 (ip), vehicle: Klucel (hydroxypropylcellulose) (HPC)): 98 % of control
- T/C (dose: 12.5 mg/kg/injection, schedule: Q01DX009 (ip), vehicle: Klucel (hydroxypropylcellulose) (HPC)): 102 % of control
- T/C (dose: 12.5 mg/kg/injection, schedule: Q04DX002 (ip), vehicle: Klucel (hydroxypropylcellulose) (HPC)): 103 % of control
- T/C (dose: 25.0 mg/kg/injection, schedule: Q01DX009 (ip), vehicle: Klucel (hydroxypropylcellulose) (HPC)): 98 % of control
- T/C (dose: 25.0 mg/kg/injection, schedule: Q04DX002 (ip), vehicle: Klucel (hydroxypropylcellulose) (HPC)): 100 % of control

Structure (SMILES): C1=C\C2CC2CCCC/1 (stereo unspecified)
- T/C (dose: 12.5 mg/kg/injection, schedule: Q01DX005 (ip), vehicle: saline with Tween-80): 86 % of control
- T/C (dose: 25.0 mg/kg/injection, schedule: Q01DX005 (ip), vehicle: saline with Tween-80): 96 % of control
- T/C [4]: 98 % of control
- T/C (dose: 50.0 mg/kg/injection, schedule: Q01DX005 (ip), vehicle: saline with Tween-80): 89 % of control
- T/C (dose: 50.0 mg/kg/injection, schedule: Q01DX009 (ip), vehicle: saline with Tween-80): 94 % of control
- T/C (dose: 100.0 mg/kg/injection, schedule: Q01DX009 (ip), vehicle: saline with Tween-80): 102 % of control

Structure (SMILES): Cc1ccc(NC(=O)NCCBr)cc1C
- T/C [1]: 96 % of control
- T/C [2]: 93 % of control
- T/C [3]: 95 % of control

Structure (SMILES): COc1cc2c(c(OC)c1OC)-c1ccc(O)c(=O)cc1C(N)CC2 (stereo unspecified)
- T/C (dose: 6.25 mg/kg/injection, schedule: Q01DX009 (ip), vehicle: saline with Tween-80): 98 % of control
- T/C (dose: 12.5 mg/kg/injection, schedule: Q01DX009 (ip), vehicle: saline with Tween-80): 100 % of control
- T/C [4]: 94 % of control

Structure (SMILES): Nc1ccc2ncccc2c1 (tested in a mixture with another compound)
- T/C (dose: 100.0 mg/kg/injection, schedule: Q04DX003 (ip), vehicle: gum acacia): 100 % of control
- T/C (dose: 200.0 mg/kg/injection, schedule: Q04DX003 (ip), vehicle: gum acacia): 91 % of control
- T/C (dose: 400.0 mg/kg/injection, schedule: Q04DX003 (ip), vehicle: gum acacia): 100 % of control

Structure (SMILES): Cc1nccc2c(C)c3c(cc12)c1ccccc1n3CCC1CO1 (stereo unspecified)
- T/C (dose: 37.5 mg/kg/injection, schedule: Q04DX003 (ip), vehicle: water): 118 % of control
- T/C (dose: 75.0 mg/kg/injection, schedule: Q04DX003 (ip), vehicle: water): 122 % of control
- T/C (dose: 150.0 mg/kg/injection, schedule: Q04DX003 (ip), vehicle: water): 118 % of control

Structure (SMILES): O=C(CC[n+]1ccccc1)NCCCCCCNC(=O)CC[n+]1ccccc1
- T/C (dose: 5.0 mg/kg/injection, schedule: Q01DX001 (ip), vehicle: saline): 107 % of control

Structure (SMILES): CCC1(Sc2ncnc3nc[nH]c23)C(=O)NC(=O)NC1=O
- T/C (dose: 6.25 mg/kg/injection, schedule: Q01DX015 (ip), vehicle: alkali diluted with saline): 124 % of control
- T/C (dose: 22.0 mg/kg/injection, schedule: Q01DX015 (ip), vehicle: saline): 154 % of control
- T/C (dose: 33.0 mg/kg/injection, schedule: Q01DX015 (ip), vehicle: saline): 157 % of control
- T/C (dose: 50.0 mg/kg/injection, schedule: Q01DX015 (ip), vehicle: saline): 164 % of control
- T/C (dose: 75.0 mg/kg/injection, schedule: Q01DX015 (ip), vehicle: saline): 183 % of control
- T/C (dose: 100.0 mg/kg/injection, schedule: Q01DX001 (ip), vehicle: alkali diluted with saline): 103 % of control
- T/C (dose: 200.0 mg/kg/injection, schedule: Q01DX001 (ip), vehicle: alkali diluted with saline): 106 % of control
- T/C (dose: 200.0 mg/kg/injection, schedule: Q01DX015 (ip), vehicle: alkali diluted with saline): 166 % of control
- T/C (dose: 400.0 mg/kg/injection, schedule: Q01DX001 (ip), vehicle: alkali diluted with saline): 114 % of control
- T/C (dose: 400.0 mg/kg/injection, schedule: Q01DX015 (ip), vehicle: alkali diluted with saline): 109 % of control

Structure (SMILES): O=C(CC(O)(C(F)(F)F)C(F)(F)F)c1ccc([N+](=O)[O-])cc1
- T/C (dose: 50.0 mg/kg/injection, schedule: Q04DX003 (ip), vehicle: other): 102 % of control
- T/C (dose: 100.0 mg/kg/injection, schedule: Q04DX003 (ip), vehicle: other): 100 % of control
- T/C (dose: 200.0 mg/kg/injection, schedule: Q04DX003 (ip), vehicle: other): 100 % of control
- T/C (dose: 400.0 mg/kg/injection, schedule: Q04DX003 (ip), vehicle: other): 104 % of control
